This is an account of results in patent EP4516107A1, “CHITOSAN AND ORGANIC ACID HAVING A PKA OF 4 OR MORE, OR A SALT THEREOF IN BAKERY PRODUCTS” (Mauri Technology B.V., priority 2023, dated 2025).

In one data set the test system is P. paneum. The data set is described as follows: accelerated shelf-life testing (ASLT): time of appearance (TOA) and growth pattern of P. paneum on inoculated breadcrumbs. The class given is cell-based, Penicillium paneum. The conditions noted are these: CalPro 0.3% FWB; tin bread crumb, ±500 spores; Figure 1. How it is done: (§1) Breads were made by mixing the dough ingredients from Table 1. The wt.% for several ingredients are given based on flour weight (Flour Weight Based, FWB). For the prepared recipes the difference with total dry weight is insubstantial. The following breads were prepared: a control without any preservatives, a reference containing 0.3% flour weight based (FWB) calcium propionate (CalPro), and a bread containing 1% chitosan (KitoZyme, Belgium) with number average MW of 15 kDa and degree of deacetylation (DDA) of 70%. The chitosan sample was obtained from cell wall of A. niger (KitoZyme, Belgium). Ingredients were mixed using a spiral mixer for 10 minutes. Afterwards the dough for each trial was divided into three pieces of 520 g, rounded manually, and placed into bread tins. The dough pieces were placed in a proofing cabinet to rise at 40 °C and 80% relative humidity until they reach similar height (fermentation time between 60-70 min). The breads were baked for 22 minutes in a deck oven at 260 (bottom) and 230 (top) °C. [Table 1] Bread recipes
(§2) Following baking, the breads were cooled in a HEPA-filtered chamber for 90 min. One bread was used for pH measurement and two breads were subjected to ASLT.
To perform ASLT, the remaining two breads were sliced to 13 mm slices. […]

The subject of the next data set is A. niger. The data set can be described thus: accelerated shelf-life testing (ASLT): time of appearance (TOA) of A. niger on inoculated breadcrumbs. The data set is classed as cell-based, Aspergillus niger. How it is done: as §1, §2
To perform ASLT, the remaining two breads were sliced to 13 mm slices. The crumb (inner part of breads) of three random slices from each bread were cut out using a cookie cutter (3.2 cm diameter) and placed in sterile 6-well plates (2x breads x 3 slices). Two 6-well plates were prepared per bread type. Each bread piece in a 6-well plate was inoculated with 3 aliquots of ±500 spores ([…]) of either A. niger or P. paneum. Therefore, 18 spots of each mould were inoculated per trial (6 bread piece × 3 aliquots). Freeze-dried spores were used in all experiments. The inoculated breads incubated at room temperature of around 21 °C until visible mould appearance. The appearance of the moulds was imaged by taking photographs. The images were inspected visually, and the TOA was defined as mould appearance in hours after mould inoculation. […]

For data set [1] the following is noted: cited from earlier work.

In the case of `CCC(=O)[O-].CCC(=O)[O-].[Ca+2]` [CalPro, calcium propionate], the “increased TOA of P. paneum compared to control bread without preservatives” value with P. paneum is 17%. For the same compound, the “effectiveness against A. niger, CalPro compared to chitosan” value in the data set with A. niger (CalPro 0.3% FWB vs chitosan 1% FWB) is listed as “more effective against A. niger”. Besides, the “increased TOA of A. niger compared to control bread without preservatives” value in the data set with A. niger (CalPro 0.3% FWB, tin bread crumb, ±500 spores, Figure 1A) was determined as 80%. The “increase in TOA of A. niger compared to control without preservative” value with A. niger (CalPro alone 0.3% FWB, Figure 2 A-B) is “approximately 50%”.
As to `CC(O)C(=O)O` (stereo not drawn) [lactic acid], the pKa result in data set [1] is given as “about 3.85”.
With `C/C=C/C=C/C(=O)O` [sorbic acid], the pKa entry in data set [1] was “about 4.76”.
